In series [1] the target is human Nav1.8 sodium channel (Homo sapiens, UniProt Q9Y5Y9). In words: Blocking activity on sodium channel 1.8 (Nav1.8), whole-cell manual patch clamp. Format: cell-based. The settings on record: for inhibition at 0.001 µM: read-out: inhibition Percent @1 nM, 1 nM compound.
The nature of series [2]: In vivo pharmacokinetics in rats, single intravenous injection or oral gavage. The settings on record: male, SD, plasma, Rat; for Vd: read-out: Vss. The procedure:
The in vivo pharmacokinetics in rats were evaluated via a single intravenous injection or oral gavage administration in this test example. • 1. Test Methods and Conditions: Male SD rats were fasted overnight and administered a single intravenous dose of 2 mg/kg or 1 mg/kg of the test compound (solvent for Intravenous administration was 5% DMSO/10% Solutol® HS 15/10% EtOH/75% saline, with a dosing volume of 5 mL/kg) and an oral gavage dose of 10 mg/kg or 5 mg/kg of the test compound (solvent for administration was 0.5% CMC-Na, with a dosing volume of 10 mL/kg), respectively. • 2. Sampling Information: Blood samples (0.2 mL) were collected from the retroorbital venous plexus at the designated time points: 0.25, 0.5, 1.0, 2.0, 3.0, 4.0, 6.0, 8.0, and 24 hours before and after dosing (a 5 min sampling point was added for the intravenous administration group), respectively. The samples were placed in EDTA-K2 tubes and centrifuged at 11,000 rpm for 5 minutes. Plasma was separated and frozen at -20°C. • 3. Assay Information: LC/MS/MS was used to determine the concentration of the parent drug in rat/mouse plasma following intravenous and oral gavage administration of the test compound. Pharmacokinetic parameters in rat/mouse plasma were calculated for both administration routes, and the bioavailability of each compound in rats was also calculated. Table 5: Intravenous Pharmacokinetic Information of Representative Compounds

The mark [3] stands for this setting: intravenous, single dose 2 mg/kg or 1 mg/kg (figure not given).

This note sets out measurements from patent EP4700018A1, “NAV1.8 INHIBITORS, PREPARATION METHOD THEREFOR AND USE THEREOF” (Shanghai Institute of Materia Medica, Chinese Academy of …, priority 2023, dated 2024).

Sequence of human Nav1.8 sodium channel (Q9Y5Y9 whole entry): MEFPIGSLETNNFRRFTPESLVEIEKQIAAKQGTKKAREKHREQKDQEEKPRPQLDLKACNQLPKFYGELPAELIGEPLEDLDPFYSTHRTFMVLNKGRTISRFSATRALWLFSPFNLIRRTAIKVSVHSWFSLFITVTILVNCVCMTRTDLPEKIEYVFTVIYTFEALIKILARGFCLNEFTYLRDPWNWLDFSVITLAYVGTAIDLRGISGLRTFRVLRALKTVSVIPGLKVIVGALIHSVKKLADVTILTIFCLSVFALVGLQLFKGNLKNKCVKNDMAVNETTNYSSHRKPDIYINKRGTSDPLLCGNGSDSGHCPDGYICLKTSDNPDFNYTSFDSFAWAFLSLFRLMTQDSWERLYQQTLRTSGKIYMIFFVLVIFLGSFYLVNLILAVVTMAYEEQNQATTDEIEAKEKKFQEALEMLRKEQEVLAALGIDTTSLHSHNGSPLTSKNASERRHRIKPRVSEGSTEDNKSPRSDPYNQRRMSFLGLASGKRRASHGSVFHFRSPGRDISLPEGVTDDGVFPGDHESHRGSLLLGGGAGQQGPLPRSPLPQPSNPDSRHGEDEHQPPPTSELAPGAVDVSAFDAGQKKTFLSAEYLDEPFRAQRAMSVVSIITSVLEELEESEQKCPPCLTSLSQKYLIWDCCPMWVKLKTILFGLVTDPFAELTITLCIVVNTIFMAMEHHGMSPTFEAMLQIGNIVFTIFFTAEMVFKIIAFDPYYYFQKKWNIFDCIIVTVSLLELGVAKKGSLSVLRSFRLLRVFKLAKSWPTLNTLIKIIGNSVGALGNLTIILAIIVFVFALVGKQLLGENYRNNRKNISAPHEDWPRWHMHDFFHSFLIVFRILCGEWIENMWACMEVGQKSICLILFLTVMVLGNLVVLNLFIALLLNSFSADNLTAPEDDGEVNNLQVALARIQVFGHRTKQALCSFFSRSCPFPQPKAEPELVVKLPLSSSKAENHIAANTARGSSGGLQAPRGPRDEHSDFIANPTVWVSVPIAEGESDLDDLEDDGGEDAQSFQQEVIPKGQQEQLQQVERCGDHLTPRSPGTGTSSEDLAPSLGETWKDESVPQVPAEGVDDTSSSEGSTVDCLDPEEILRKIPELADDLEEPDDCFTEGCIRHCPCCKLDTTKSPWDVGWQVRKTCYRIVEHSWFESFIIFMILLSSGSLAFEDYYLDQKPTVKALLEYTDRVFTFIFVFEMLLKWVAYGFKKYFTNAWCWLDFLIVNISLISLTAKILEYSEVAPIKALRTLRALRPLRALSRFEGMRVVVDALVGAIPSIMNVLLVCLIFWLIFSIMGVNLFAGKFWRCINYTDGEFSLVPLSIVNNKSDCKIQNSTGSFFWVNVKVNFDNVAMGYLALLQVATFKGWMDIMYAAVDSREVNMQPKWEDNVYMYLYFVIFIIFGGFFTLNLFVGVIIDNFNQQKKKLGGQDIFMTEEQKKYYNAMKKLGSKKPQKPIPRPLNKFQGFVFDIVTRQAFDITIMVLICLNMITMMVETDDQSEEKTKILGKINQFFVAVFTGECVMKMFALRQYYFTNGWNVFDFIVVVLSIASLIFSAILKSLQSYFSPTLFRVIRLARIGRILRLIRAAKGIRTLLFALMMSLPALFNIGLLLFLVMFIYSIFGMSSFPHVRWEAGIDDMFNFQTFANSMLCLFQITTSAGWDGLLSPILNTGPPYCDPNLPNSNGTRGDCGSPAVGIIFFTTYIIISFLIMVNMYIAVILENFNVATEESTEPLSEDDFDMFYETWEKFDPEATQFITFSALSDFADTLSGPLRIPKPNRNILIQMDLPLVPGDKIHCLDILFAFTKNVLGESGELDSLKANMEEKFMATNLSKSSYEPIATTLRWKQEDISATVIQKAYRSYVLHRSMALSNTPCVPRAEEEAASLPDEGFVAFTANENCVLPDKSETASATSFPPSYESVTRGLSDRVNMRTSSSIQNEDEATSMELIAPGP

Broadly, the inhibition is the drop in the measured response relative to a control, in per cent. By AUC(0-t) is commonly meant the area under the concentration-time curve up to a stated or last time point. A lower AUC(0-t) goes with low exposure. By half-life is commonly meant the time needed for the level to fall by half in the phase considered. High values mean slow decline, low ones rapid decline. As a reminder, the Cmax is the highest concentration seen after dosing. For orientation: Tmax means the time at which the peak concentration occurs. As usually defined, the bioavailability is dose-corrected exposure relative to a reference, in per cent. A higher bioavailability goes with much systemic uptake. Regarding `CC(C)c1nc(N2CCCC(F)(F)CC2)c(C(=O)Nc2ccc(F)c(C(N)=NO)c2)cc1Cl` [Compound I-24, 5-chloro-2-(4,4-difluoroazepan-1-yl)-N-(4-fluoro-3-(N'-hydroxyamidino)phenyl)-6-isop ropylnicotinamide], the inhibition at 0.001 µM in series [1] was 56%. Moreover, in series [2] (setting [3]), the AUC(0-t) turned out to be 1260 ng·h/mL, the clearance came to 12.8 mL/min/kg, the half-life was 2 h and the Vd was 1.38 L/kg. In series [2] (oral gavage, 5mg/kg), the AUC(0-t) worked out at 1950 ng·h/mL, the Cmax turned out to be 244 ng/mL, the Tmax was determined as 2 h and the half-life is 2.73 h. Also, in series [2] (oral gavage, 5mg/kg), the bioavailability amounted to 30.9%.
Turning to `NC(=NO)c1cc(NC(=O)c2cc(Cl)c(C(F)(F)F)cc2N2CCCC(F)(F)CC2)ccc1F` [Compound I-33, 5-chloro-2-(4,4-difluoroazepan-1-yl)-N-(4-fluoro-3-(N'-hydroxyamidino)phenyl)-4-(trifluoromethyl)benzamide], the inhibition at 0.001 µM in series [1] was 86%. In series [2] (setting [3]), the AUC(0-t) was 2270 ng·h/mL, the clearance was 7.44 mL/min/kg, the half-life is 2.67 h and the Vd turned out to be 1.16 L/kg. Besides, in series [2] (oral gavage, 5mg/kg), the AUC(0-t) came to 8640 ng·h/mL, the concentration peaked (Cmax) at 623 ng/mL, the Tmax was 6 h and the half-life was 5.12 h. Moreover, the bioavailability in series [2] (oral gavage, 5mg/kg) stood at 38.9%.
As for `NC(=NO)c1cc(NC(=O)c2cc(Cl)c(C(F)(F)F)nc2N2CCCC(F)(F)CC2)ccc1F` [Compound I-36, 5-chloro-2-(4,4-difluoroazepan-1-yl)-N-(4-fluoro-3-(N'-hydroxyamidino)phenyl)-6-(trifluoromethyl)nicotinamide], the inhibition at 0.001 µM in series [1] stood at 50%. Further, in series [2] (setting [3]), the AUC(0-t) came to 4440 ng·h/mL, the clearance was 3.91 mL/min/kg, the half-life was 3.28 h and the Vd was 0.823 L/kg. In series [2] (oral gavage, 5mg/kg), the AUC(0-t) amounted to 4410 ng·h/mL, the Cmax amounted to 386 ng/mL, the Tmax is 4.3 h and the half-life was 3.15 h. In series [2] (oral gavage, 5mg/kg), this molecule displayed a bioavailability of 38.9%.
As a reminder, the IC50 is the point on the concentration scale where inhibition reaches its midpoint. As for `COc1c([C@H]2[C@H](C(=O)Nc3ccnc(C(N)=O)c3)O[C@@](C)(C(F)(F)F)[C@H]2C)ccc(F)c1F` [VX-548, reference compound], in series [1], half-maximal inhibition (IC50) required 0.34 ± 0.04 nM. Also, in series [2] (setting [3]), the AUC(0-t) amounted to 804 ng·h/mL, the clearance stood at 20.7 mL/min/kg, the half-life is 0.67 h and the Vd amounted to 0.92 L/kg. Further, in series [2] (oral gavage, 5mg/kg), the AUC(0-t) is 518 ng·h/mL, the concentration peaked (Cmax) at 157 ng/mL, the Tmax stood at 0.5 h and the half-life is 2.68 h. The bioavailability in series [2] (oral gavage, 5mg/kg) came out at 14%.
